This is an account of results in US4791215A, “Derivatives of glutamic acid and aspartic acid” (priority 1984, dated 1988).

“And” between values parts separate entries of the source, which are not always exact repeats. Equal values may be shown once.

Series [1] relates to CCK-8 induced contraction of rabbit colon. As to the kind of experiment: Anti-spastic activity in the colon stimulated by CCK-8. In kind it is in vivo. The method, then: A much more specific anti-spastic activity, that is adhering much more to a physiological situation, is illustrated by the following experiment.
The abdomen of an anaesthetised rabbit was cut open to show the transverse colon. A small balloon full of water was inserted at the point established and connected to a pressure transducer by means of a polythene cannula filled with water.
The optimum sensitivity was fixed in relation to the physiological conditions and the products were administered through the femoral vein. Contractions were induced by the administration of 100 ng/kg of CCK.

The test system of series [2] is intestinal transit of carbon. Nature of the series: Anti-spastic activity, vegetable carbon intestinal transit test. The series is classed as in vivo, mice. The settings on record: Mus musculus, ip; read-out: antispastic activity ED50 (dose reducing intestinal transit of carbon by 50%). The source says: The anti-spastic activity which the present compounds exert on the entire digestive system is also notable. Measured in mice with the vegetable carbon test (rate of transit through the stomach and the intestine), this activity is illustrated in the following table.
claimed administered intraperitoneally in mice. Values
expressed as the ED 50 in mg/kg, that is the dose which
reduces the intestinal transit of carbon by 50%

For series [3], the system named is CCK-8 induced contraction of guinea pig gall bladder. As to the kind of experiment: Anti-CCK activity on gall bladder strips in vitro. The settings on record: CCK-8 10 ng/ml. In short, it runs like this: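 CCK-8 at 10 ng/ml drove isometric contraction of guinea pig gall bladder strips held at 32 °C in oxygenated Krebs (O2/CO2 95:5). Antagonism was measured at graded compound concentrations and reported as ED50, in μg/ml, for 50% inhibition of the contraction.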

For series [4] the test system is unchanged. Nature of the series: Anti-CCK-8 activity on gall bladders in situ. The conditions noted are these: for percentage inhibition of contracting effect of CCK-8: single experiments; for ED50: Cavia porcellus, iv, CCK-8 10 ng/kg i.v., read-out: ED50 (inhibition of 50% of contracting effect of CCK-8). In kind it is in vivo. The method, then: In order to confirm the evidence of the studies in vitro several of the more interesting compounds were tested in vivo on guinea pig gall baldders in situ.
The method used is that described by Ljungberg (Svensk. Farm. Tidskr. 68, 351-354, 1964).
Guinea pigs having a weight of about 400 g, anaesthetised with urethane, were used; the substances under examination were administered intraveneously into the jugular vein.
The responses of the gall bladders to the substances under test were detected by means of a force transducer and recorded by means of a microdynamometer. The optimum contracting dose was chosen as 10 ng/kg of CCK-8. The antagonist compounds tested were administered in increasing doses so as to enable the calculation of an ED50 value, that is in the dose (in mg/kg i.v.) capable of inhibiting 50% of the contracting effect of 10 ng/kg i.v. of CCK-8.
The results obtained are given in Table 7 below, which gives the doses used and the effects obtained expressed as a percentage inhibition of the contracting effect of CCK-8 as well as the ED50 found.

Another series relates to morphine analgesia. Nature of the series: Increase in analgesia of morphine, Tail Flick Test (Experiment 1). The series is classed as in vivo, rats. The settings on record: for percentage variation of latency of pain sensation / M (10-90) ± SE, mean percentage variation of latency: compound 10 mg/kg i.p. + morphine 2 mg/kg; for M (10-90) ± SE, mean percentage variation of latency: mean 10-90 min; for Power ratio with respect to morphine alone: rat, in vivo. In short, it runs like this:
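Tail-flick latency to 75 °C radiant heat, capped at 8 s, measured in male non-fasted rats weighing 150-200 g. Percentage change per animal derived from pre-treatment baseline versus post-drug readings at 10-90 min (10, 20, 30, 45, 60, 90 min).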
For orientation: Thermal pain tests record how soon the animal reacts.

The test system of a further series is biliary flow. Nature of the series: Biliary flow (choleretic activity). In kind it is in vivo, rat. The conditions noted are these: for ED50: Rattus norvegicus, iv, average over 2 hours, read-out: ED50 (dose causing 50% increase in biliary flow). On the procedure: The following experiment was carried out: a cannula was inserted in the bile duct of a rat anaesthetised with urethane, together with a small needle connected to a polythene tube, and the bile liquid was thus collected. The collection was carried out for one hour before the intravenous administration of the tested compounds and for a further two hours after administration, the samples collected at 30 minute intervals being weighed.
In order to prevent possible dehydration of the animals, 0.5 ml of physiological solution was administered at 30 minute intervals up to a total of 3 ml.

In series [5] the test system is pancreatic adenocarcinoma. In kind it is in vivo, hamsters. An excerpt: (§1) The anti-cholecystokinin effect of the most powerful of the compounds which are the subject of the present invention, that is the compound C-7, on the trophic activity of CCK on normal pancreatic cells and on those of a pancreatic adenocarcinoma is to be studied.
(§2) Male hamsters were inoculated in the cheek pouches with a suspension of 1×10^5 tumoral cells of a pancreatic adenocarcinoma. Five days after the inoculation the animals were divided at random into 4 groups of 10 animals each, that is, a control group, a group of animals treated with 10 μg/kg of CCK-8 three times a day, a group of animals treated with 5 mg/kg i.p. of compound C-7 three times a day, and a fourth group treated simultaneously with the compound C-7 and CCK-8 in the manner described above.
(§3) After 15 days of this treatment, the animals were killed, and the normal pancreas and the inoculated pancreatic tumours in the cheek pouches were collected and weighed. The DNA was extracted and measured according to conventional techniques.
(§4) The results thus obtained are given in Table 13, expressed as mean values (±S.E.)

Another series relates to normal pancreatic cells. Nature of the series: Trophic action of CCK-8 on normal pancreas. In kind it is in vivo, hamsters. The settings on record: CCK-8 10 mcg/kg 3 times per day.
Description: as §1, §2, §3, §4

The mark [6] stands for this setting: CCK-8 10 mcg/kg 3 times per day.

What is called ED50 is the midpoint of the dose-response relation. Consider `CCCCN(CCCC)C(=O)C(CCC(=O)O)NC(=O)c1ccc(Cl)c(Cl)c1` (racemic) [Compound C-6, D,L-4-(3,4-dichloro-benzoyl-amino)-5-(di-n-butylamino)-5-oxo-pentanoic acid], for which, in series [1] (0.1 mg/kg iv, single experiments), the “effect on CCK-8 stimulated colon” value was determined as 0. The ED50 was determined as 1.53 mg/kg in series [1] (Oryctolagus cuniculus, iv, CCK 100 ng/kg); 29.5 mg/kg in series [2]; 0.05 mg/kg in series [4]; 4.2 mg/kg in the series with biliary flow. The “ED50 (concentration antagonising 50% of contracting effect of CCK-8)” value in series [3] stood at 0.33 µg/mL. Further, the “percentage inhibition of contracting effect of CCK-8” value in series [4] (0.01 mg/kg i.v.) was -12.9%; in series [4] (0.03 mg/kg i.v.) it was -49.7% and -40.0%; in series [4] (1 mg/kg i.v.), -100.0%. Further, in series [4] (0.1 mg/kg), the “block of gall bladder contractions induced by CCK-8” value is reported as “can block gall bladder contractions induced by CCK-8”. Besides, the “percentage variation of latency of pain sensation” value with morphine analgesia (10') was 89.2%; in the series with morphine analgesia (20'), 91.3 ± 8.7%; with morphine analgesia (30'), 83.6 ± 10.0%; in the series with morphine analgesia (45'), 82.1 ± 16.6%; in the series with morphine analgesia (60'), 79.8 ± 17.0%; in the series with morphine analgesia (90'), 38.2%. Also, the “M (10-90) ± SE, mean percentage variation of latency” value in the series with morphine analgesia was 77.4 ± 19.6%. The “Power ratio with respect to morphine alone” value (“Power ratio” below) in the series on morphine analgesia amounted to 2.59. Moreover, the “% increase in biliary flow with respect to controls” value in the series on biliary flow (3 mg/kg i.v.) was “+40.4%”; with biliary flow (10 mg/kg i.v.), “+69.8%”; in the series on biliary flow (30 mg/kg i.v.) it was “+88.7%”.
Consider `CCCCCN(CCCCC)C(=O)C(CCC(=O)O)NC(=O)c1ccc(Cl)cc1` (stereo not shown) [Compound C-4], for which the ED50 turned out to be 38.8 mg/kg in series [2] and 0.3 mg/kg in series [4]. For the same compound, the “ED50 (concentration antagonising 50% of contracting effect of CCK-8)” value in series [3] turned out to be 1.1 µg/mL. In addition, the “percentage inhibition of contracting effect of CCK-8” value in series [4] (0.03 mg/kg i.v.) is -11.8%; in series [4] (1 mg/kg i.v.), -92.1% and -88.5%. Moreover, the “percentage variation of latency of pain sensation” value in the series on morphine analgesia (10') was determined as 44.6 ± 5.3%; with morphine analgesia (20') it was 67.5 ± 13.4%; in the series with morphine analgesia (30') it was 66.3 ± 14.0%; with morphine analgesia (45') it was 60.4 ± 16.3%; in the series on morphine analgesia (60') it was 59.8 ± 17.0%; with morphine analgesia (90') it was 44.2 ± 14.8%. Moreover, the “M (10-90) ± SE, mean percentage variation of latency” value in the series on morphine analgesia worked out at 57.1%. In the series on morphine analgesia, the “Power ratio” value turned out to be 1.92.
For the compound `CCCc1ccc(C(=O)NC(CCC(=O)O)C(=O)N(CCC)CCC)cc1` (stereo not shown) [Compound C-35], the ED50 in series [2] was 181 mg/kg; in the series on biliary flow, 29.5 mg/kg. The “ED50 (concentration antagonising 50% of contracting effect of CCK-8)” value in series [3] amounted to 367.1 µg/mL. In addition, the “percentage variation of latency of pain sensation” value in the series on morphine analgesia (10') is on record as 39.9 ± 15%; in the series with morphine analgesia (20') it was 62.3 ± 23%; in the series on morphine analgesia (30'), 13.7%; in the series on morphine analgesia (45') it was 63.2 ± 17%; with morphine analgesia (60'), 61.3 ± 20%; in the series with morphine analgesia (90'), 28.8 ± 31%. Besides, in the series on morphine analgesia, the “M (10-90) ± SE, mean percentage variation of latency” value is given as 44.9 ± 21%. Also, the “Power ratio” value with morphine analgesia was determined as 1.51. Also, the “% increase in biliary flow with respect to controls” value with biliary flow (12.5 mg/kg i.v.) is listed as “+9.6%”; with biliary flow (25 mg/kg i.v.), “+51.9%”; in the series on biliary flow (50 mg/kg i.v.), “+91.9%”; in the series on biliary flow (100 mg/kg i.v.), “+159.7%”.
Take “CCK-8: the biologically active component of the cholecystokinin hormone [reference compound]”: in series [5] (setting [6]), the “TUMORAL DNA” value stood at 0.7 ± 0.13 mg and the “Weight of Pancreatic Carcinoma” value worked out at 180 ± 15.2 mg. Besides, the “animals died during the treatment” value in series [5] (CCK-8 10 mcg/kg 3 times per day, of 10) is reported as 2 animals. Also, the “effect on growth of pancreatic adenocarcinoma / CCK-8 actions” value in series [5] (hamster, in vivo) is given as “stimulates the growth of a pancreatic adenocarcinoma”. For the same compound, in the series with normal pancreatic cells, the Pancreas weight was determined as 600 ± 54.1 mg and the “Pancreatic DNA” value is 1.5 ± 0.11 mg.
